Laboratory results: ChEMBL document CHEMBL1201862, “PubChem BioAssay data set” (2004)
The source made the active and inactive calls.

What was measured:
[1] = target: ORF 73 (Human herpesvirus 8, UniProt O40947); assay: inhibitors of C-LANA binding to LBS DNA, dose response, biochemical, fluorescence polarization, cherry-picked samples (AID 504725); design: species or system Human gammaherpesvirus 8;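 further: fluorescence polarization of a labeled DNA duplex reporting LANA DNA binding; potency is for inhibitors that block LANA binding to the DNA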
Sequence of ORF 73 (O40947 whole entry): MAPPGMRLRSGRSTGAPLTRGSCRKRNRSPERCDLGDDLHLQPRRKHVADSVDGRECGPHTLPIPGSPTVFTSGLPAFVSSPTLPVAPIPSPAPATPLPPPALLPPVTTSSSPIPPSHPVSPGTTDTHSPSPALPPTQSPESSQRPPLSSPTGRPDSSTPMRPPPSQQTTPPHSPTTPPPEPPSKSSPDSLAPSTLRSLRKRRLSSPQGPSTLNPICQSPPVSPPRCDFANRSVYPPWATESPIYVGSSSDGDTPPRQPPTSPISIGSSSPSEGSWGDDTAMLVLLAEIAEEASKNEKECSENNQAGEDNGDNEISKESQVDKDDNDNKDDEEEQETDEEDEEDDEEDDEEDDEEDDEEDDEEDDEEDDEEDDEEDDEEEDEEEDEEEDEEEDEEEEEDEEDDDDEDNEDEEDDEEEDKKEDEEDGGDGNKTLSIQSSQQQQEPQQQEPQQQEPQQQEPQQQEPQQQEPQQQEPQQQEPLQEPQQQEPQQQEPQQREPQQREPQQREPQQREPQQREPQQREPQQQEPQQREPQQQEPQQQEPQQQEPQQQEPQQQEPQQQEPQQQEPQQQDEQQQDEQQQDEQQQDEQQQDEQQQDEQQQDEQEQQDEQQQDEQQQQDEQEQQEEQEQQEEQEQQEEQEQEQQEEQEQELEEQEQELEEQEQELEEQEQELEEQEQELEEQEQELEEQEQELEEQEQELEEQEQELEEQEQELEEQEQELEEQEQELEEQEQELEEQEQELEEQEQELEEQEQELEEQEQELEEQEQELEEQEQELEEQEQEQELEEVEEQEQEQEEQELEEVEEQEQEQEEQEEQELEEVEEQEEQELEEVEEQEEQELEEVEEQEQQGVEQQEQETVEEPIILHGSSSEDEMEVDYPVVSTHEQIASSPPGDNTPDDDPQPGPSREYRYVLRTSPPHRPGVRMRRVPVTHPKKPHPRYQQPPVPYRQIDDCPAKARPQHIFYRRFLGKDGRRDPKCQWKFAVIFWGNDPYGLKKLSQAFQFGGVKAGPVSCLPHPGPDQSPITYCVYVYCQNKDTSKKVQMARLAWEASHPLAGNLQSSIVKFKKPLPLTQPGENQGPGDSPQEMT

[2] = target: T1, Insulin-degrading enzyme (Homo sapiens, UniProt P14735); assay: activators of endogenous IDE in HEK cells, dose response, cell-based, fluorescence polarization (AID 588439); format: functional
T1 sequence (P14735 whole entry): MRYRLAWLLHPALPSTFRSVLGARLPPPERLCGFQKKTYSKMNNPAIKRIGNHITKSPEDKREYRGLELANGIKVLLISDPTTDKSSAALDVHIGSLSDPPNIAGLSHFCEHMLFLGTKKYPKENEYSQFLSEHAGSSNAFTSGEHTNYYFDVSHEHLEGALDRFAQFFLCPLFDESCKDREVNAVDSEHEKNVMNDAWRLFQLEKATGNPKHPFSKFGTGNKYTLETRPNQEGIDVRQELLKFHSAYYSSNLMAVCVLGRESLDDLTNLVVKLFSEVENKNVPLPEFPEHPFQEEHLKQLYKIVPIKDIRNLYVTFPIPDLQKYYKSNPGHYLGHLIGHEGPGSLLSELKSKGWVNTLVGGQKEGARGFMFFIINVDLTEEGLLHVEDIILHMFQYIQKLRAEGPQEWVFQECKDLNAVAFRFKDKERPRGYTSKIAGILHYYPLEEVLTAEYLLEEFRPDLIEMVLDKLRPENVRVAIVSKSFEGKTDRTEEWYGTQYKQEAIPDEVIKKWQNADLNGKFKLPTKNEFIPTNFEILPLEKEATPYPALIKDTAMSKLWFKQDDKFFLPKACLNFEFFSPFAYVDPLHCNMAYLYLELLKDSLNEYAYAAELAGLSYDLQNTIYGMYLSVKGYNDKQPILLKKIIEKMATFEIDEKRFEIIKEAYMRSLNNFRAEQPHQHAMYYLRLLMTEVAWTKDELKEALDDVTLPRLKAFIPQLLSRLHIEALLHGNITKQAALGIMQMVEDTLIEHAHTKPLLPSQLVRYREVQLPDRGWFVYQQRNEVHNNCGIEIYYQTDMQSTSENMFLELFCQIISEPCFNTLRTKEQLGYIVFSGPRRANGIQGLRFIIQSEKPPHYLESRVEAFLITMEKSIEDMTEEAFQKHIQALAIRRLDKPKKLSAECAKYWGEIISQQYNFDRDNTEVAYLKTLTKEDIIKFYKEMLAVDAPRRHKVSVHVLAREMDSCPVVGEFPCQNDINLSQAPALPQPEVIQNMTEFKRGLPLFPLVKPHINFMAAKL

[3] = target: T1, Insulin-degrading enzyme; assay: activators of recombinant IDE enzyme, dose response, counter-screen for IDE activator project, biochemical, fluorescence polarization (AID 588681)
[4] = fluorescence interference artefacts, compound only, dose response, artefact control for cardiac thin filament activator project, biochemical, no RTF in test wells (AID 504697)
[5] = system: HEK293; assay: optical interference in Abeta FP readout, dose response, artefact control for IDE activator project, biochemical, fluorescence polarization (AID 588442); format: functional, cell-based; settings: Homo sapiens
[6] = target: Troponin, cardiac muscle (Homo sapiens, UniProt P19429+P45379+P63316); assay: Fluorescence-based biochemical high throughput dose response assay for activators of the calcium sensitivity of cardiac Regulated Thin Filaments (RTF). [Related pubchem assays (depositor defined):AID493008, AID493018, AID504382, AID504383]; format: protein-complex assay
[7] = target: Beta-lactamase (Pseudomonas aeruginosa, UniProt Q79MP6);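 further: biochemical dose-response test of metallo-beta-lactamase enzyme inhibition, read out by epi-absorbance; purified recombinant IMP-1 metallo-beta-lactamase with nitrocefin as substrate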
Sequence of Beta-lactamase (Pseudomonas aeruginosa, UniProt Q79MP6) (Q79MP6 whole entry): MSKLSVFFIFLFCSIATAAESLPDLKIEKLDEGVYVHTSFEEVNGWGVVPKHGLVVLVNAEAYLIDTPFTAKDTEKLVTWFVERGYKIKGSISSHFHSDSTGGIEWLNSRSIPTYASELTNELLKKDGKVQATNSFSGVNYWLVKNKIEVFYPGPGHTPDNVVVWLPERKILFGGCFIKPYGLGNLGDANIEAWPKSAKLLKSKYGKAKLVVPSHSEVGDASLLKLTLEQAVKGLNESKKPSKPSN

[8] = system: HEK293; assay: HEK cell cytotoxicity by LDH release, dose response, cytotoxicity control for IDE activator project, fluorescence, HEK cells (AID 588440); format: functional, cell-based; settings: Homo sapiens;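 further: cytotoxicity by LDH release measuring loss of membrane integrity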
[9] = target: Beta-lactamase (Salmonella choleraesuis (strain SC-B67), UniProt Q5J463)
Sequence of Beta-lactamase (Salmonella choleraesuis (strain SC-B67), UniProt Q5J463) (Q5J463 whole entry): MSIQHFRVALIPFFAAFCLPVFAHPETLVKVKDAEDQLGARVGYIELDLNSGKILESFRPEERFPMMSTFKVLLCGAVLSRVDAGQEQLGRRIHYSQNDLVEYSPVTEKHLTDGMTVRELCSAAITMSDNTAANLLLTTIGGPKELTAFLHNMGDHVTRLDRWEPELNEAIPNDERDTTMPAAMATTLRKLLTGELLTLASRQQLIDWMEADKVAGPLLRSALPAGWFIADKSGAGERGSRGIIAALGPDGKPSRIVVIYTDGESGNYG

CN(C)/C=C1\C=C2C(=O)c3ccccc3N2C1=O
AC50 [1]: 51 nM (active)
EC50 [2]: > 54700 nM (inactive)
EC50 [3]: > 54700 nM (inactive)
EC50 [4]: > 32.7 nM (active)
EC50 [5]: > 54700 nM (inactive)
EC50 [6]: > 10.9 nM (active)
IC50 [7]: 1020 nM (active)
IC50 [8]: > 89200 nM (inactive)
IC50 [9]: 372 nM (active)
